Measurements published in PubChem BioAssay AID256 (DTP/NCI, 2004).
“And” between values parts separate entries of the source, which are not always exact repeats. Identical values can stand only once. Inconclusive results and toxic doses are left out.

System: CD2F1 mice, L1210 leukemia ip, survival T/C
Assay: NCI In Vivo Anticancer Drug Screen. Data for tumor model L1210 Leukemia (intraperitoneal) in CD2F1 (CDF1) mice
Conditions: higher = longer survival
How it was run: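 Ratio T/C, where T is the treated-group value and C the vehicle-dosed control value, from mice implanted with a transplantable tumor.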

[1] = endpoint: mean survival time, dose: 100.0 mg/kg/injection, schedule: Q01DX009 (ip), vehicle: saline with Tween-80
[2] = endpoint: mean survival time, dose: 100.0 mg/kg/injection, schedule: Q04DX003 (ip), vehicle: saline with Tween-80
[3] = endpoint: mean survival time, dose: 200.0 mg/kg/injection, schedule: Q01DX009 (ip), vehicle: saline with Tween-80
[4] = endpoint: mean survival time, dose: 200.0 mg/kg/injection, schedule: Q04DX003 (ip), vehicle: saline with Tween-80
[5] = endpoint: mean survival time, dose: 400.0 mg/kg/injection, schedule: Q01DX009 (ip), vehicle: saline with Tween-80
[6] = endpoint: mean survival time, dose: 400.0 mg/kg/injection, schedule: Q04DX003 (ip), vehicle: saline with Tween-80

c1ccc(-c2cc(-c3ccccc3)on2)cc1
T/C [1]: 96 % of control | T/C [2]: 93 % of control | T/C [3]: 94 % of control | T/C [4]: 94 % of control | T/C [5]: 97 % of control | T/C [6]: 98 % of control

CCNC(=O)OCC1C2=C(C(=O)C(C)=C(N)C2=O)N2CC3C(N3C)C12OC (stereo unspecified)
T/C (endpoint: mean survival time, dose: 133.0 mg/kg/injection, schedule: Q01DX001 (ip), vehicle: carboxymethylcellulose (CMC)): 118 % of control | T/C (endpoint: mean survival time, dose: 300.0 mg/kg/injection, schedule: Q01DX001 (ip), vehicle: carboxymethylcellulose (CMC)): 111 % of control

CCOC(=O)c1c[nH]c2oc(/C=N/N3CC(CN4CCOCC4)OC3=O)cc2c1=O (stereo unspecified)
T/C (endpoint: mean survival time, dose: 12.5 mg/kg/injection, schedule: Q01DX009 (ip), vehicle: saline): 97 % of control and 109 % of control | T/C (endpoint: mean survival time, dose: 25.0 mg/kg/injection, schedule: Q01DX009 (ip), vehicle: other): 102 % of control | T/C (endpoint: mean survival time, dose: 25.0 mg/kg/injection, schedule: Q01DX009 (ip), vehicle: saline with Tween-80): 107 % of control | T/C (endpoint: mean survival time, dose: 25.0 mg/kg/injection, schedule: Q01DX009 (ip), vehicle: saline): 97 % of control and 103 % of control | T/C (endpoint: mean survival time, dose: 50.0 mg/kg/injection, schedule: Q01DX009 (ip), vehicle: other): 110 % of control | T/C (endpoint: mean survival time, dose: 50.0 mg/kg/injection, schedule: Q01DX009 (ip), vehicle: saline with Tween-80): 109 % of control | T/C (endpoint: mean survival time, dose: 50.0 mg/kg/injection, schedule: Q01DX009 (ip), vehicle: saline): 114 % of control and 101 % of control | T/C [1]: 124 % of control | T/C (endpoint: mean survival time, dose: 200.0 mg/kg/injection, schedule: Q01DX009 (ip), vehicle: other): 160 % of control | T/C (endpoint: mean survival time, dose: 200.0 mg/kg/injection, schedule: Q01DX009 (ip), vehicle: saline): 158 % of control | T/C (endpoint: mean survival time, dose: 400.0 mg/kg/injection, schedule: Q01DX009 (ip), vehicle: other): 96 % of control | T/C [5]: 152 % of control | T/C (endpoint: mean survival time, dose: 400.0 mg/kg/injection, schedule: Q01DX009 (ip), vehicle: saline): 124 % of control and 100 % of control | T/C (endpoint: median survival time, dose: 50.0 mg/kg/injection, schedule: Q01DX005 (ip), vehicle: other): 112 % of control | T/C (endpoint: median survival time, dose: 50.0 mg/kg/injection, schedule: Q01DX009 (ip), vehicle: acid diluted with saline): 115 % of control and 101 % of control | T/C (endpoint: median survival time, dose: 100.0 mg/kg/injection, schedule: Q01DX005 (ip), vehicle: other): 118 % of control | T/C (endpoint: median survival time, dose: 100.0 mg/kg/injection, schedule: Q01DX009 (ip), vehicle: acid diluted with saline): 124 % of control | T/C (endpoint: median survival time, dose: 400.0 mg/kg/injection, schedule: Q01DX005 (ip), vehicle: other): 190 % of control | T/C (endpoint: median survival time, dose: 400.0 mg/kg/injection, schedule: Q01DX009 (ip), vehicle: acid diluted with saline): 90 % of control

O=C(COc1ccccc1)Nc1ccc(Br)cc1
T/C (endpoint: mean survival time, dose: 100.0 mg/kg/injection, schedule: Q01DX001 (ip), vehicle: Klucel (hydroxypropylcellulose) (HPC)): 97 % of control | T/C (endpoint: mean survival time, dose: 200.0 mg/kg/injection, schedule: Q01DX001 (ip), vehicle: Klucel (hydroxypropylcellulose) (HPC)): 105 % of control | T/C (endpoint: mean survival time, dose: 400.0 mg/kg/injection, schedule: Q01DX001 (ip), vehicle: Klucel (hydroxypropylcellulose) (HPC)): 105 % of control

CCOC(=O)C(C)OC(=O)c1ccccc1 (stereo unspecified)
T/C [1]: 103 % of control | T/C [2]: 91 % of control | T/C [3]: 105 % of control | T/C [4]: 105 % of control | T/C [5]: 100 % of control | T/C [6]: 103 % of control

Cc1cc(C)c(C(=O)c2ccccc2-c2ccccc2C(=O)c2c(C)cc(C)cc2C)c(C)c1
T/C [1]: 86 % of control | T/C [2]: 96 % of control | T/C [3]: 89 % of control | T/C [4]: 100 % of control | T/C [5]: 91 % of control | T/C [6]: 96 % of control

O=C(O)c1ccc(Cl)c2ncccc12
T/C (endpoint: mean survival time, dose: 37.5 mg/kg/injection, schedule: Q01DX009 (ip), vehicle: saline): 100 % of control | T/C (endpoint: mean survival time, dose: 75.0 mg/kg/injection, schedule: Q01DX009 (ip), vehicle: saline): 95 % of control | T/C (endpoint: mean survival time, dose: 75.0 mg/kg/injection, schedule: Q04DX003 (ip), vehicle: saline): 100 % of control | T/C (endpoint: mean survival time, dose: 150.0 mg/kg/injection, schedule: Q01DX009 (ip), vehicle: saline): 105 % of control | T/C (endpoint: mean survival time, dose: 150.0 mg/kg/injection, schedule: Q04DX003 (ip), vehicle: saline): 97 % of control | T/C (endpoint: mean survival time, dose: 300.0 mg/kg/injection, schedule: Q04DX003 (ip), vehicle: saline): 95 % of control

Nc1nc(-c2cccc([N+](=O)[O-])c2)c(N=Nc2ccc(Br)cc2)s1
T/C (endpoint: mean survival time, dose: 100.0 mg/kg/injection, schedule: Q01DX001 (ip), vehicle: saline with Tween-80): 96 % of control | T/C (endpoint: mean survival time, dose: 200.0 mg/kg/injection, schedule: Q01DX001 (ip), vehicle: saline with Tween-80): 87 % of control | T/C (endpoint: mean survival time, dose: 400.0 mg/kg/injection, schedule: Q01DX001 (ip), vehicle: saline with Tween-80): 90 % of control
